Assay results taken from patent US20240166664A1, “TRIHETEROCYCLIC COMPOUND, PREPARATION METHOD THEREFOR, AND APPLICATION THEREOF” (SHANGHAI APEIRON THERAPEUTICS COMPANY LIMITED, priority 2021, published 2024).

Legend:
NCI-H1373 cells = test: Cell proliferation inhibition assay (CTG method); assay type: cell-based, human; conditions: Homo sapiens, NCI-H1373, 144 h, NCI-H1373 cells, 6 days incubation, CTG method; read-out: IC50 (nM) for NCI-H1373 cell viability
PARP7 = target: T1, PARP7 (Homo sapiens, UniProt Q7Z3E1); test: Test of inhibitory activity against PARP7 enzyme (PARP7 FLAG-tag, Probe A, time-resolved fluorescence); assay type: biochemical; conditions: PARP7 12 nM, Probe A 2 nM, 1 hr room temperature
T1 construct: purchased BPS 80527
T1 sequence (Q7Z3E1 1-657): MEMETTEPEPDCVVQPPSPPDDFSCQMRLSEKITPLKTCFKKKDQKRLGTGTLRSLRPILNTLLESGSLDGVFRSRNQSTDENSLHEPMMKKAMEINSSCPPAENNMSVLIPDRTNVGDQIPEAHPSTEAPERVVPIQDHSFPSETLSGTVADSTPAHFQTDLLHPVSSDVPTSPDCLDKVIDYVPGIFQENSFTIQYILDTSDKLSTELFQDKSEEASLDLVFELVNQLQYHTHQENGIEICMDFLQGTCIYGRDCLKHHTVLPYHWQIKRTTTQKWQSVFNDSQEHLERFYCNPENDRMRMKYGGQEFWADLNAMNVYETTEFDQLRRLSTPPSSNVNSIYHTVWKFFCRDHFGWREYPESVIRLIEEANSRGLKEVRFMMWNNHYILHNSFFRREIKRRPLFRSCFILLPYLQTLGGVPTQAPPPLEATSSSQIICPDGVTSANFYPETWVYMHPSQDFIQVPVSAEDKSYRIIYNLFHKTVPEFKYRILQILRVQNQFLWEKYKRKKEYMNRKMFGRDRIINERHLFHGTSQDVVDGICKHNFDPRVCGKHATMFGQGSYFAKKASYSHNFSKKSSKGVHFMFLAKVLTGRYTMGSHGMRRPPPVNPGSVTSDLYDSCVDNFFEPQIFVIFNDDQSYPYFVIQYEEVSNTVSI

Structure (SMILES) | IC50 (NCI-H1373 cells) | IC50 (PARP7)
C[C@@H](COCCC(=O)N1CCN2c3ncc(C(F)(F)F)cc3NC[C@H]2C1)Nc1cn[nH]c(=O)c1C(F)(F)F [Compound 9] | 500 to 5000 nM | < 10 nM
C[C@@H](COCCC(=O)N1CCN2c3ncc(C(F)(F)F)cc3CNC[C@H]2C1)Nc1cn[nH]c(=O)c1C(F)(F)F [Compound 10] | 100 to 500 nM | < 10 nM
C[C@@H](COCCC(=O)N1CCN2c3ncc(C(F)(F)F)cc3CN(C#N)C[C@H]2C1)Nc1cn[nH]c(=O)c1C(F)(F)F [Compound 11] | 500 to 5000 nM | < 10 nM
C[C@@H](COCCC(=O)N1CCN2c3ncc(C(F)(F)F)cc3CSC[C@H]2C1)Nc1cn[nH]c(=O)c1C(F)(F)F [Compound 12, 5-(((S)-1-(3-oxo-3-((R)-3-(trifluoromethyl)-7a, 8,10,11-tetrahydro-5H-pyrazino[2,1-c]pyrido[2,3-e][1,4]thiazin-9(7H)-yl)propoxy)prop-2-yl)amino)-4-(trifluoromethyl)pyridazin-3(2H)-one] | < 100 nM | < 10 nM
C[C@@H](COCCC(=O)N1CCN2c3ncc(C(F)(F)F)nc3OC[C@H]2C1)Nc1cn[nH]c(=O)c1C(F)(F)F [Compound 14] | 100 to 500 nM | < 10 nM
C[C@@H](COCCC(=O)N1CCN2c3ncc(C(F)(F)F)cc3C[S+]([O-])C[C@H]2C1)Nc1cn[nH]c(=O)c1C(F)(F)F (stereo partly drawn) [Compound 15, 5-(((2S)-1-(3-((7aR)-6-oxo-3-(trifluoromethyl)-7a, 8,10,11-tetrahydro-5H-pyrazino[2,1-c]pyrido[2,3-e][1,4]thiazin-9(7H)-yl)-3-oxopropoxy)prop-2-yl)amino)-4-(trifluoromethyl)pyridazin-3(2H)-one] | 500 to 5000 nM | < 10 nM
C[C@@H](COCCC(=O)N1CCN2C(=O)c3ncc(C(F)(F)F)cc3OC[C@H]2C1)Nc1cn[nH]c(=O)c1C(F)(F)F [Compound 16, (R)-8-(3-((S)-2-((6-oxo-5-(trifluoromethyl)-1,6-dihydropyridazin-4-yl)amino)propoxy)propionyl)-3-(trifluoromethyl)-6,6a, 7,8,9,10-hexahydro-12H-pyrazino[2,1-c]pyrido[2,3-f][1,4]oxazepin-12-one] | > 5000 nM | 10 to 100 nM
C[C@@H](COCCC(=O)N1CCN2C(=O)c3ncc(C(F)(F)F)cc3OC[C@@H]2C1)Nc1cn[nH]c(=O)c1C(F)(F)F [Compound 17, (S)-8-(3-((S)-2-((6-oxo-5-(trifluoromethyl)-1,6-dihydropyridazin-4-yl)amino)propoxy)propionyl)-3-(trifluoromethyl)-6,6a, 7,8,9,10-hexahydro-12H-pyrazino[2,1-c]pyrido[2,3-f][1,4]oxazepin-12-one] | > 5000 nM | 10 to 100 nM
C[C@@H](COCCC(=O)N1CCN2Cc3ncc(C(F)(F)F)cc3OC[C@H]2C1)Nc1cn[nH]c(=O)c1C(F)(F)F [Compound 18, 5-(((S)-1-(3-oxo-3-((R)-3-(trifluoromethyl)-6a, 7,9,10-tetrahydro-12H-pyrazino[2,1-c]pyrido[2,3-f][1,4]oxazepin-8(6H)-yl)propoxy)prop-2-yl)amino)-4-(trifluoromethyl)pyridazin-3(2H)-one] | > 5000 nM | 10 to 100 nM
C[C@@H](COCCC(=O)N1CCN2Cc3ncc(C(F)(F)F)cc3OC[C@@H]2C1)Nc1cn[nH]c(=O)c1C(F)(F)F [Compound 19, 5-(((S)-1-(3-oxo-3-((S)-3-(trifluoromethyl)-6a, 7,9,10-tetrahydro-12H-pyrazino[2,1-c]pyrido[2,3-f][1,4]oxazepin-8(6H)-yl)propoxy)prop-2-yl)amino)-4-(trifluoromethyl)pyridazin-3(2H)-one] | > 5000 nM | 100 to 500 nM
C[C@@H](COCCC(=O)N1CCN2c3ncc(F)cc3COC[C@H]2C1)Nc1cn[nH]c(=O)c1C(F)(F)F [Compound 20, (R)-9-(3-((S)-2-((6-oxo-5-(trifluoromethyl)-1,6-dihydropyridazin-4-yl)amino)propoxy)propionyl)-3-fluoro-7,7a, 8,9,10,11-hexahydro-5H-pyrazino[2,1-c]pyrido[2,3-e][1,4]oxazin-5-one] | > 5000 nM | > 500 nM
C[C@@H](COCCC(=O)N1CCN2c3ncc(C(F)(F)F)cc3CS(=O)(=O)C[C@H]2C1)Nc1cn[nH]c(=O)c1C(F)(F)F [Compound 22] | 500 to 5000 nM | < 10 nM
C[C@@H](COCCC(=O)N1CCN2c3ncc(C(F)(F)F)cc3CN(C)C[C@H]2C1)Nc1cn[nH]c(=O)c1C(F)(F)F [Compound 23, 5-(((S)-1-(3-((S)-6-methyl-3-(trifluoromethyl)-6,7,7a, 8,10,11-octahydropyrazino[1,2-a]pyrido[3,2-f][1,4]Diazepin-9(5H)-yl)-3-propoxy)prop-2-yl)amino)-4-(trifluoromethyl) pyridazin-3(2H)-one] | 100 to 500 nM | < 10 nM

The remaining lines, values ahead:

IC50 (NCI-H1373 cells) | IC50 (PARP7) | Structure (SMILES)
100 to 500 nM | < 10 nM | C[C@@H]1CN2c3ncc(C(F)(F)F)cc3COC[C@H]2CN1C(=O)CCOC[C@H](C)Nc1cn[nH]c(=O)c1C(F)(F)F [Compound 25, 5-(((S)-1-(3-((6aR,9R)-9-methyl-3-(trifluoromethyl)-6a, 7,9,10-tetrahydropyrazino[1,2-d]pyrido[3,2-b][1,4]oxazin-8(6H)-yl)-3-oxypropoxy)prop-2-yl)amino)-4-(trifluoromethyl)pyridazin-3(2H)-one]
500 to 5000 nM | < 10 nM | CC1SC[C@H]2CN(C(=O)CCOC[C@H](C)Nc3cn[nH]c(=O)c3C(F)(F)F)CCN2c2ncc(C(F)(F)F)cc21 (stereo partly shown) [Compound 27]
< 100 nM | < 10 nM | C[C@@H](COCCC(=O)N1CCN2c3ncc(C(F)(F)F)cc3OCC[C@H]2C1)Nc1cn[nH]c(=O)c1C(F)(F)F [Compound 29, 5-(((S)-1-(3-oxo-3-((S)-3-(trifluoromethyl)-6,7,7a, 8,10,11-hexahydro-9H-pyrazino[1,2-d]pyrido[3,2-b][1,4]oxazepan-9-yl)propoxy)prop-2-yl)amino)-4-(trifluoromethyl)pyridazin-3(2H)-one]
100 to 500 nM | < 10 nM | C[C@@H](COCCC(=O)N1CCN2c3ncc(C(F)(F)F)cc3N(C3CC3)C(=O)[C@@H]2C1)Nc1cn[nH]c(=O)c1C(F)(F)F [Compound 30, (s)-5-cyclopropyl-8-(3-((S)-2-((6-oxo-5-(trifluoromethyl)-1,6-dihydropyridazin-4-yl)amino)propoxy)propionyl)-3-(trifluoromethyl)-7,8,9,10-tetrahydro-5H-pyrazino[1,2-a]pyrido[3,2-e]pyrazin-6(6aH)-one]
500 to 5000 nM | < 10 nM | Cc1nc2c(cc1C(F)(F)F)COC[C@H]1CN(C(=O)CCOC[C@H](C)Nc3cn[nH]c(=O)c3C(F)(F)F)CCN21 [Compound 31]
< 100 nM | < 10 nM | C[C@@H](COCCC(=O)N1CCN2c3ncc(C(F)(F)F)cc3CCC2C1)Nc1cn[nH]c(=O)c1C(F)(F)F (stereo partly shown) [Compound 32]
500 to 5000 nM | < 10 nM | C[C@@H](COCCC(=O)N1CCN2c3ncc(C(F)(F)F)nc3OC[C@@H]2C1)Nc1cn[nH]c(=O)c1C(F)(F)F [Compound 34, 5-(((S)-1-(3-oxo-3-((S)-3-(trifluoromethyl)-6a, 7,9,10-tetrahydrobipyrazino[2,3-b: 1′,2′-d][1,4]oxazin-8(6H)-yl)propoxy)prop-2-yl)amino)-4-(trifluoromethyl)pyridazin-3(2H)-one]
